From patent US9145354B2, “Pharmaceutical compounds” (priority 2011, dated 2015) come the findings set out here.

Structures are written as SMILES. pIC50: −log10 of the molar value. Like-named read-outs stand apart in the source and are kept apart here.

This experiment addresses full length NS3/4a (Hepatitis C virus genotype 1b (isolate BK) (HCV), UniProt P26663). The experiment can be described thus: NS3 Protease Assay (Example A), FRET-based. The format is biochemical. To be noted: for IC50: HCV NS3 protease assay, full length NS3/4a, read-out: Assay A IC50 (μM) average; for pIC50: read-out: IC50 against the protease activity of the full length NS3/4a. In outline: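 Full-length NS3/4a, made in-house, with an NS4A/B-derived peptide substrate carrying QXL520 quencher and 5-FAMsp fluorophore. Buffer 50 mM Tris pH8, 20 mM DTT, 1% CHAPS, 10% glycerol, 5% DMSO. Fluorescence followed 30 min at room temperature; IC50 from initial rates of replicate curves.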

Setting [1] is: stated as IC50 less than 30 μM or at least 40% inhibition at a concentration of 100 μM.

Sequence of full length NS3/4a (P26663 1027-1657): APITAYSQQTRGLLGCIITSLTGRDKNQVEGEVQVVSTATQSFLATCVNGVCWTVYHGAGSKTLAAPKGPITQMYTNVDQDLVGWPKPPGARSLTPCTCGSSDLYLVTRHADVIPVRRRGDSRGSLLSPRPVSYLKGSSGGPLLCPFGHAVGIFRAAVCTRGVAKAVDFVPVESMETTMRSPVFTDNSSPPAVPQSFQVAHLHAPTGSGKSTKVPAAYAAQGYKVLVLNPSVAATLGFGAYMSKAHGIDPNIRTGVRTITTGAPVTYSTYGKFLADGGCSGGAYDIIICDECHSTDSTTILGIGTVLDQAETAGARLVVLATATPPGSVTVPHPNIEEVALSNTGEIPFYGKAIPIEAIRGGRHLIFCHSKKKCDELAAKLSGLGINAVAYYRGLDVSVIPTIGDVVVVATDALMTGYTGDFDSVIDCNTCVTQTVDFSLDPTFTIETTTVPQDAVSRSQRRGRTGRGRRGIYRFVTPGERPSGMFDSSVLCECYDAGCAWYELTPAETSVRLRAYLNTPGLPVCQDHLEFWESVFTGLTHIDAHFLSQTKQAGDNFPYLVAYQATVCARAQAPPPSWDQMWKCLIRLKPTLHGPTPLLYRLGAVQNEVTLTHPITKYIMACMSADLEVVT

Take `C[C@H](CC(N)=O)N[C@@H](c1ccc(Cl)c(C(=O)c2ccc3c(c2)OCC(=O)N3)c1F)C1CC1` [Example 271, (3R)-3-{[(R)-{4-chloro-2-fluoro-3-[(3-oxo-3,4-dihydro-2H-1,4-benzoxazin-7-yl)carbonyl]phenyl}(cyclopropyl)methyl]-amino}butanamide]: the IC50 is 1.1 µM and the pIC50 is 5.30 to 6.00.
With `CC[C@@H](N[C@H](C)CC(N)=O)c1ccc(Cl)c(C(=O)c2ccc(C#N)cc2)c1F` [Example 92, (3R)-3-{[(1R)-1-{4-chloro-3-[(4-cyanophenyl)carbonyl]-2-fluorophenyl}propyl]amino}-butanamide], the IC50 turned out to be 0.34 µM.
In the case of `C[C@H](CC(N)=O)N[C@@H](c1ccc(Cl)c(C(=O)c2ccc(N)nc2)c1F)C1CC1` [Example 155, (3R)-3-{[(R)-{3-[(6-aminopyridin-3-yl)carbonyl]-4-chloro-2-fluorophenyl}(cyclo-propyl)methyl]amino}-butanamide], the IC50 worked out at 1 µM and the pIC50 was 5.30 to 6.00.
The matching figures for `CC[C@@H](N)c1ccc(OC)c(C(=O)c2ccc(F)cc2)c1F` [Example 191, (1R)-1-{2-fluoro-3-[(4-fluorophenyl)carbonyl]-4-methoxyphenyl}-propan-1-amine]: 1.1 µM and 5.30 to 6.00.
In the case of `CC[C@H](NC(=O)C1CCCNC1)c1ccc(Cl)c(C(=O)c2cccnc2)c1F` (stereo partly drawn) [Example 294, N-[(1S)-1-{4-chloro-2-fluoro-3-[(pyridin-3-yl)carbonyl]phenyl}propyl]piperidine-3-carboxamide], the IC50 was found to be 0.41 µM and the pIC50 was above 6.00.
The like results for `CC[C@@H](N)c1ccc(Cl)c(C(=O)c2ccc(CO)cc2)c1F` [Example 50, [4-({3-[(1R)-1-aminopropyl]-6-chloro-2-fluorophenyl}carbonyl)phenyl]methanol] were, in that order, 0.21 µM and above 6.00.
As to `CC[C@@H](N)c1ccc(Cl)c(C(=O)c2ccc([N+](=O)[O-])c(C)c2)c1F` [Example 64, (1R)-1-{4-chloro-2-fluoro-3-[(3-methyl-4-nitrophenyl)carbonyl]phenyl}propan-1-amine], the inhibition at 0.1 µM (@ 0.1 uM) came to 44%.
In the case of `C[C@H](CC(N)=O)N[C@@H](c1ccc(Cl)c(C(=O)c2ccc(N)cn2)c1F)C1CC1` [Example 254, (3R)-3-{[(R)-{3-[(5-aminopyridin-2-yl)carbonyl]-4-chloro-2-fluorophenyl}(cyclopropyl)methyl]amino}butanamide], the IC50 was 1.8 µM and the pIC50 was 5.30 to 6.00.
Take `CC[C@@H](N[C@@H](C)CC(N)=O)c1ccc(Cl)c(C(=O)c2cccc(C(=O)O)c2)c1F` [Example 122, 3-({3-[(1R)-1-{[(2S)-1-carbamoylpropan-2-yl]amino}propyl]-6-chloro-2-fluorophenyl}carbonyl)-benzoic acid]: the IC50 was 1.4 µM and the pIC50 was 5.30 to 6.00.
For the molecule `CC[C@@H](N[C@H](C)CC(N)=O)c1ccc(Cl)c(C(=O)c2ccc(N)nc2)c1F` [Example 82, (3R)-3-{[(1R)-1-{3-[(6-aminopyridin-3-yl)carbonyl]-4-chloro-2-fluorophenyl}propyl]-amino}butanamide], the IC50 worked out at 0.83 µM.
In the case of `C[C@H](CC(N)=O)N[C@@H](c1ccc(Cl)c(C(=O)c2ccc(C#N)cn2)c1F)C1CC1` [Example 245, (3R)-3-{[(R)-{4-chloro-3-[(5-cyanopyridin-2-yl)carbonyl]-2-fluorophenyl}(cyclopropyl)methyl]amino}butanamide], the IC50 is 3.4 µM and the pIC50 is 5.30 to 6.00.
The molecule `CCC(NC1CCCC1C(N)=O)c1ccc(Cl)c(C(=O)c2ccc(N)nc2)c1F` (single isomer, unassigned) [Example 161, 2-{[1-{3-[(6-aminopyridin-3-yl)carbonyl]-4-chloro-2-fluorophenyl}propyl]amino} cyclopentane-1-carboxamide] yielded an inhibition at 10 µM of 60%. The pIC50 under setting [1] is above 4.52.
In the case of `CC[C@@H](N[C@H](C)CC(N)=O)c1ccc(Cl)c(C(=O)c2ccccc2)c1F` [Example 114, (3R)-3-{[(1R)-1-(3-benzoyl-4-chloro-2-fluorophenyl)-(2,2,3,3,3-D)propyl]amino}-butanamide], the IC50 is 0.75 µM.
As to `CC[C@@H](N)c1ccc(Cl)c(C(=O)c2cccc(F)c2)c1F` [Example 7, (1R)-1-{4-chloro-2-fluoro-3-[(3-fluorophenyl)carbonyl]-phenyl}propan-1-amine], the IC50 worked out at 0.38 µM and the pIC50 is above 6.00.
Take `CC[C@@H](N[C@@H](C)C(N)=O)c1ccc(Cl)c(C(=O)c2cccnc2)c1F` [Example 170, (2S)-2-{[(1R)-1-{4-chloro-2-fluoro-3-[(pyridin-3-yl)carbonyl]phenyl}-propyl]amino}-propanamide]: the pIC50 is 5.30 to 6.00. For the setting “@ 3 uM”, this molecule returned an inhibition at 3 µM of 55%.
In the case of `CC[C@@H](NCCO)c1ccc(Cl)c(C(=O)c2cccnc2)c1F` [Example 163, 2-{[(1R)-1-{4-Chloro-2-fluoro-3-[(pyridin-3-yl)carbonyl]phenyl}propyl]amino}ethan-1-ol], 10 µM produced 62% inhibition. Moreover, the pIC50 under setting [1] is above 4.52.
With `CC[C@@H](N[C@H](C)c1cn[nH]c1)c1ccc(Cl)c(C(=O)c2cccnc2)c1F` [Example 300, [(1R)-1-{4-chloro-2-fluoro-3-[(pyridin-3-yl)carbonyl]phenyl}propyl] [(1R)-1-(1H-pyrazol-4-yl)ethyl]amine], 30 µM produced 48% inhibition (@ 30 uM). Under setting [1], the pIC50 was above 4.52.
The molecule `CC[C@@H](N[C@H](C)CC(N)=O)c1ccc(Cl)c(C(=O)c2ccc(C#N)c(OC)c2)c1F` [Example 236, (3R)-3-{[(1R)-1-{4-chloro-3-[(4-cyano-3-methoxyphenyl)carbonyl]-2-fluorophenyl}propyl]amino}butanamide] had an inhibition at 1 µM (@ 1 uM) of 56%. For the same molecule, the pIC50 under setting [1] is above 4.52.
Take `CC[C@@H](N[C@H](C)CC(N)=O)c1ccc(OC)c(C(=O)c2ccc(N)c(C)c2)c1F` [Example 274, (3R)-3-{[(1R)-1-{3-[(4-amino-3-methylphenyl)carbonyl]-2-fluoro-4-methoxyphenyl}propyl]amino}butanamide]: the IC50 was 0.56 µM.
Regarding `CC[C@@H](N)c1ccc(Cl)c(C(=O)c2ccns2)c1F` [Example 16, (1R)-1-{4-chloro-2-fluoro-3-[(1,2-thiazol-5-yl)carbonyl]phenyl}propan-1-amine], the IC50 is 0.47 µM and the pIC50 was above 6.00.
Turning to `CC[C@@H](N[C@H](C)CC(N)=O)c1ccc(Cl)c(C(=O)c2ccc(-n3cccn3)nc2)c1F` [Example 140, (3R)-3-{[(1R)-1-(4-chloro-2-fluoro-3-{[6-(1H-pyrazol-1-yl)pyridin-3-yl]carbonyl}-phenyl)-propyl]amino}-butanamide], the IC50 amounted to 3.9 µM and the pIC50 was 5.30 to 6.00.
With `CC[C@@H](N[C@H](C)CC(N)=O)c1ccc(Cl)c(C(=O)c2cccc(CO)c2)c1F` [Example 189, (3R)-3-{[(1R)-1-(4-chloro-2-fluoro-3-{[3-(hydroxymethyl)-phenyl]-carbonyl}phenyl)-propyl]amino}butanamide], the IC50 turned out to be 0.54 µM.
On to `CC[C@@H](N)c1ccc(Cl)c(C(=O)c2ccc3c(c2)OCCN3)c1F` [Example 65, (1R)-1-{4-chloro-3-[(3,4-dihydro-2H-1,4-benzoxazin-7-yl)carbonyl]-2-fluorophenyl}propan-1-amine], for which the IC50 was found to be 0.16 µM.
For the molecule `CC[C@@H](N[C@@H](C)CC(N)=O)c1ccc(Cl)c(C(=O)c2ccc(N(C)C)nc2)c1F` [Example 136, (3S)-3-{[(1R)-1-(4-chloro-3-{[6-(dimethylamino)pyridin-3-yl]carbonyl}-2-fluorophenyl)propyl]-amino}butanamide], the IC50 was found to be 0.83 µM and the pIC50 was above 6.00.
`CC[C@H](NC(=O)CCN)c1ccc(Cl)c(C(=O)c2ccc(N)nc2)c1F` [Example 303]: the IC50 was determined as 0.065 µM and the pIC50 was above 6.00.
`CC[C@@H](N[C@H](C)CO)c1ccc(Cl)c(C(=O)c2cccnc2)c1F` [Example 166, (2R)-2-{[(1R)-1-{4-chloro-2-fluoro-3-[(pyridin-3-yl)carbonyl}phenyI}-propyl]amino}propan-1-ol]: the IC50 came to 6.3 µM. In addition, under setting [1], the pIC50 is above 4.52.
As to `CC[C@@H](N[C@H](C)CC(N)=O)c1ccc(OC)c(C(=O)c2ccccc2)c1F` [Example 153, (3R)-3-{[(1R)-1-(3-benzoyl-2-fluoro-4-methoxyphenyl)propyl]amino}butanamide], the IC50 turned out to be 0.49 µM.
As to `CC[C@@H](N)c1ccc(Cl)c(C(=O)c2cncc(N)c2)c1F` [Example 45, 5-({3-[(1R)-1-aminopropyl]-6-chloro-2-fluorophenyl}carbonyl)pyridin-3-amine], at 10 µM the inhibition was 50%. Further, the pIC50 under setting [1] is above 4.52.
Regarding `CC[C@@H](N)c1ccc(Cl)c(C(=O)c2cnc(NC)cn2)c1F` [Example 57, 5-({3-[(1R)-1-aminopropyl]-6-chloro-2-fluorophenyl}carbonyl)-N-methylpyrazin-2-amine], the IC50 was determined as 4.6 µM and the pIC50 was 5.30 to 6.00.
With `CC[C@H](N)c1ccc(Cl)c(C(=O)c2ccc(Cl)nc2)c1F` [Example 30, (1S)-1-{4-chloro-3-[(6-chloropyridin-3-yl)carbonyl]-2-fluorophenyl}propan-1-amine], the IC50 is 0.21 µM and the pIC50 is above 6.00.
The matching figures for `CC[C@@H](NCC1CC1)c1ccc(Cl)c(C(=O)c2cccnc2)c1F` [Example 284]: 2.7 µM and 5.30 to 6.00.
`CC[C@H](NCCO)c1ccc(Cl)c(C(=O)c2ccc(N)nc2)c1F` [Example 173, 2-{[(1S)-1-{3-[(6-aminopyridin-3-yl)carbonyl]-4-chloro-2-fluorophenyl}propyl]-amino}ethan-1-ol]: the IC50 is 0.13 µM and the pIC50 was above 6.00.

The IC50 is the point on the concentration scale where inhibition reaches its midpoint. The term inhibition denotes how much of the control response was suppressed. Low readings indicate little suppression, high ones strong suppression.
